Where two headings read alike, the source gives them in different places.
Key:
HCT116 colon cancer = settings: ref [1], cited from earlier work
MCF-7 cells = settings: read-out: IC50 proliferation of transformed MCF-7 cells; ref [1]; cited from earlier work
Aurora kinase A = settings: read-out: Ki Aurora kinase A; ref [3]; cited from earlier work
[1] = Plasma pharmacokinetics in patients; format: in vivo, human; settings: for clearance / half-life / Vd / Cmax: human, plasma, intravenous
advanced solid tumors = assay: Anti-tumor activity per RECIST in patients; format: in vivo, human
[2] = test system: xenografts of leukemia, pancreatic cancer, and colon cancer; settings: ref [1]; cited from earlier work
Abl = settings: read-out: Ki Abl; ref [3]; cited from earlier work
T315I mutant Abl kinase = settings: read-out: Ki T315I mutant Abl; ref [3]; cited from earlier work
[3] = Dose Level 1 (4 mg/m^2/hr), N=1, any cycle, regardless of attribution
[4] = Dose Level 2 (8 mg/m^2/hr), N=2, any cycle, regardless of attribution
[5] = Dose Level 3 (16 mg/m^2/hr), N=2, any cycle, regardless of attribution
[6] = Dose Level 4 (32 mg/m^2/hr), N=3, any cycle, regardless of attribution
[7] = Dose Level 5 (45 mg/m^2/hr), N=4, any cycle, regardless of attribution
[8] = Dose Level 6 (64 mg/m^2/hr), N=2, any cycle
[9] = Dose Level 6 (64 mg/m^2/hr), N=2, any cycle, regardless of attribution
[10] = Dose Level 6 (oral 100 mg) (64 mg/m^2/hr), N=7, any cycle
[11] = Dose Level 6 (oral 100 mg) (64 mg/m^2/hr), N=7, any cycle, regardless of attribution
[12] = Dose Level 7 (96 mg/m^2/hr), N=6, any cycle
[13] = Dose Level 7 (96 mg/m^2/hr), N=6, any cycle, regardless of attribution

## Cc1cc(Nc2cc(N3CCN(C)CC3)nc(Sc3ccc(NC(=O)C4CC4)cc3)n2)[nH]n1 [MK-0457]
HCT116 colon cancer
  marked tumor regression, number of HCT116 nude rat models: […]
HCT116 colon cancer; suggested by nude rat models
  target plasma concentration for achieving efficacy: […]
MCF-7 cells
  IC50: […]
Aurora kinase A
  Ki: […]
[1]; 24-hour CIV 16 mg/m^2/hr, N=1, cycle 1
  Total AUC: […]
[1]; 24-hour CIV infusion
  dose-adjusted AUC (average): […]
[1]
  clearance: […]
  half-life: […]
[1]; 8 mg/m2
  Vd: 735 L
[1]; 8 mg/m^2/hr
  Cmax: […]
[1]; 16 mg/m2
  Vd: 514 L
[1]; 16 mg/m^2/hr
  Cmax: 911 nM
[1]; 32 mg/m2
  Vd: 328 L
[1]; 32 mg/m^2/hr
  Cmax: 2170 nM
[1]; 45 mg/m2
  Vd: 429 L
[1]; 45 mg/m^2/hr
  Cmax: […]
[1]; 64 mg/m2
  clearance: 1270 mL/min
[1]; 64 mg/m^2/hr
  Cmax: […]
[1]; 96 mg/m2
  Vd: […]
  clearance: […]
  half-life: […]
[1]; 96 mg/m^2/hr
  Cmax: 7640 nM
Advanced solid tumors; 12 patients, range 38 – 328 days
  median duration of stable disease: […]
Advanced solid tumors; all dose levels
  objective anti-tumor responses (RECIST): no objective anti-tumor responses
[2]
  tumor response in nude mice xenografts: marked tumor regression
Abl
  Ki: […]
T315I mutant Abl kinase
  Ki: […]
96 mg/m^2/hr 24-hour CIV infusion (dose level 7)
  dose limiting toxicity: […]
24-hour CIV infusion every 21 days, patients with advanced solid tumors
  maximum tolerated dose (MTD): […]
[3]
  number of patients with Dehydration Grade 2: […]
  number of patients with Fatigue Grade 2: […]
  number of patients with Nausea Grade 3: […]
  number of patients with Vomiting Grade 3: […]
[4]
  number of patients with Arthralgia Grade 2: […]
  number of patients with Back pain Grade 2: […]
  number of patients with Fatigue Grade 2: […]
  number of patients with Hypoalbuminemia Grade 2: […]
  number of patients with Increased alk phos (alkaline phosphatase) Grade 2: […]
  number of patients with Urinary tract infection Grade 2: […]
[5]
  number of patients with Diarrhea Grade 2: […]
  number of patients with Nausea Grade 3: […]
  number of patients with Vomiting Grade 3: […]
[6]
  number of patients with Arthralgia Grade 2: […]
  number of patients with Diarrhea Grade 2: […]
  number of patients with Fatigue Grade 2: […]
  number of patients with Nausea Grade 2: […]
  number of patients with Vomiting (printed on the heading line, no grade): […]
Dose Level 5 (45 mg/m^2/hr), N=4, any cycle
  number of patients with Neutropenia Grade 3: […]
[7]
  number of patients with Back pain Grade 2: […]
  number of patients with Dyspnea Grade 2: […]
  number of patients with Fatigue Grade 2: […]
  number of patients with Hypophosphatemia Grade 3: […]
  number of patients with Nausea Grade 2: […]
  number of patients with Vomiting (printed on the heading line, no grade): […]
[8]
  number of patients with Leukopenia Grade 3: […]
  number of patients with Neutropenia Grade 3: […]
[9]
  number of patients with Arthralgia Grade 2: […]
  number of patients with Fatigue Grade 3: […]
  number of patients with Hyperglycemia Grade 3: […]
  number of patients with Hypoalbuminemia Grade 2: […]
  number of patients with Hypophosphatemia Grade 2: […]
  number of patients with Urinary tract infection Grade 2: […]
[10]
  number of patients with Leukopenia Grade 3: […]
  number of patients with Neutropenia Grade 3: […]
[11]
  number of patients with Arthralgia Grade 4: […]
  number of patients with Back pain Grade 2: […]
  number of patients with Dehydration Grade 2: […]
  number of patients with Diarrhea Grade 3: […]
  number of patients with Dyspnea Grade 2: […]
  number of patients with Fatigue Grade 2: […]
  number of patients with Hyperglycemia Grade 2: […]
  number of patients with Hyperglycemia Grade 3: […]
  number of patients with Hypoalbuminemia Grade 2: […]
  number of patients with Hypophosphatemia Grade 2: […]
  number of patients with Hypophosphatemia Grade 3: […]
  number of patients with Nausea Grade 2: […]
  number of patients with Urinary tract infection Grade 2: […]
  number of patients with Vomiting Grade 3: […]
[12]
  number of patients with Anemia Grade 3: […]
  number of patients with Leukopenia Grade 3: […]
  number of patients with Neutropenia Grade 3: […]
  number of patients with Neutropenia Grade 4: […]
[13]
  number of patients with Diarrhea Grade 2: […]
  number of patients with Dyspnea Grade 3: […]
  number of patients with Fatigue Grade 2: […]
  number of patients with Hypoalbuminemia Grade 3: […]
  number of patients with Increased alk phos (alkaline phosphatase) Grade 2: […]
  number of patients with Urinary tract infection Grade 2: […]
ECG pre-dose and after 24-hour infusion, cycle 1
  prolongation of the QTc: not observed
All dose levels, any cycle
  febrile neutropenia: no cases
Of 27 patients (11%)
  patients with dose reduced due to toxicity: Three
Of 27 patients (15%)
  patients with treatment delayed or dose reduced due to toxicity: […]
Of 27 patients (33%), all dose levels
  patients with serious adverse events regardless of attribution: […]
Patients who received MK-0457
  deaths on study or within 30 days of follow-up: no deaths
Single 100 mg capsule, between oral dose and start of CIV infusion, 7 patients
  adverse events at least possibly related to study drug after oral dose: No adverse events
